Structures are written as SMILES. Where only a bound is given, the exact number is not on record here.

Format in all cases: in vivo, mouse
In assay [1] the test system is STZ-induced diabetic mice (DBA background). In words: 24-hr urinary albumin excretion in STZ-induced diabetic mice (DBA background). The note with it: BEC 2.3 mg/kg/day 6 weeks, vs vehicle-treated diabetic, FIG. 6. How it is done: After an overnight fast, animals were given multiple low doses of vehicle or STZ (Sigma, St. Louis, Mo.; 50 mg/kg body wt dissolved in lactated Ringers solution) via IP injection. Mice were treated with the arginase-specific inhibitor BEC (2.3 mg/kg/day) or vehicle via osmotic minipump for 6 weeks. Urine was collected for measurement of UAE after 6 weeks. Data are presented as mean±SEM.
Experiments were conducted in male Ins2^Akita and their wild type (WT) littermate mice (DBA background; Jackson Laboratories) starting at 5 weeks of age until 14 weeks of age and were approved by the Pennsylvania State University College of Medicine Institutional Animal Care and Use Committee (PSU IACUC). […]
(§1) BEC, a selective arginase antagonist (2.3 mg/kg/day, Cayman Chemical, Ann Arbor, Mich., USA), or vehicle (phosphate-buffered saline) was administered by continuous subcutaneous infusion for 9 weeks (in Ins2^Akita experiments) or for 6 wks (in STZ DBA mice experiments) via a mini-osmotic pump (Alzet; Durect Corporation, Palo Alto, Calif., USA) as described in CIRCULATION RESEARCH, 102(8):923-32, Apr. […] The condition of mice and body weight were monitored daily following the pump implantation.
Urinary albumin excretion (UAE) was measured by ELISA using Albuwell M (Exocell, Philadelphia, Pa.) as described previously. […]

A further assay concerns Ins2^Akita mice. In words: 24-hr urinary albumin excretion (UAE) in Ins2^Akita mice. Conditions: BEC 2.3 mg/kg/day 9 weeks, at 14 weeks of age, vs vehicle, FIG. 1. The procedure:
The Ins2^Akita and their wild type (WT) littermate mice were treated with the arginase-specific inhibitor S-(2-Boronoethyl)-L-cysteine (BEC) (2.3 mg/kg/day) or vehicle via osmotic minipump for 9 weeks. Urine was collected for measurement of UAE before treatment (at 5 weeks of age) and after treatment (at 14 weeks of age). In FIG. 1, the open bars are vehicle treated groups and filled bars are arginase inhibitor treated groups. Data are presented as mean±SEM. […]
as §1
(§2) Urinary albumin excretion (UAE) was measured by ELISA using Albuwell M (Exocell, Philadelphia, Pa.) as described previously. Blood urea nitrogen (BUN) was measured using (VITROS DT60II chemistry slides; Ortho-Clinical Diagnostics, Rochester, N.Y.). Body composition was determined using LF90 Minispec Time Domain Nuclear Magnetic Resonance Spectrometer (Bruker Optics, Billerica Mass.). […]

The test system of assay [2] is Ins2^Akita and their wild type littermate mice. As to the kind of experiment: Glomerular macrophage recruitment, Mac-2 immunohistochemistry, Ins2^Akita experiment. Conditions: 14 weeks of age. The procedure:
FIGS. 2A-2D show the effect of arginase inhibition on macrophage recruitment in Ins2^Akita mice using immunohistochemistry.
Immunohistochemistry for macrophages was performed in mice using rat anti-mouse Mac-2 monoclonal antibody; clone M3/38 (Cedarlane, Burlington, N.C., US) on paraffin sections. Sections were incubated with primary antibody (50 μg/ml) followed by a biotinylated goat IgG anti-rat (Vector Laboratories, Burlingame, Calif.) secondary antibody according to the manufacturer's protocol. Sections were viewed using an Olympus BX51 microscope and DP71 digital camera using MicroSuite Basic 2.6 imaging software. Images were taken with 100× (oil) objective with a total magnification of 1000×. The number of glomerular macrophages were counted in twenty glomeruli per section (number of macrophages in glomeruli divided by the number of glomeruli) in blinded fashion under 40× magnification and averaged.
To determine whether arginases are critical for kidney macrophage infiltration in diabetic nephropathy, the distribution and quantitation of macrophages in kidneys by immunohistochemistry (Mac-2 positive macrophages) were analyzed. […]

A further assay relates to arginase 2 mRNA. As to the kind of experiment: Kidney arginase 2 mRNA expression by RT-PCR in Ins2^Akita mice. Conditions: whole kidney RNA, Ins2^Akita mice at 14 weeks of age; normalized to GAPDH, relative to control; FIG. 5. How it is done:
FIGS. 5A and 5B show the effect of arginase inhibition on arginase 2 mRNA expression in Ins2^Akita mice. Real-time polymerase chain reaction (RT-PCR) was performed on whole mouse kidney total RNA isolated at 14 weeks of age. […] In FIG. 5B, expression of arginase 2 mRNA was normalized to GAPDH and data were calculated as expression relative to control.
Total RNA was extracted from mouse kidneys using RNeasy Mini Kit (Qiagen, Gumbh, Hilden, Germany). Single-strand cDNA was synthesized using iScript cDNA Synthesis Kits (Bio-Rad, Hercules, Calif.) for two-step real-time polymerase chain reaction (RT-PCR). Gene-specific primers for ARG1 and ARG2 were designed using Beacon Designer Probe/Primer Design Software (Premier Biosoft International, Palo Alto, Calif.). Specificity of the PCR products was verified by melting curve analysis. Quantitative real-time PCR was performed using a Bio-Rad CFX96 system (Hercules, Calif.). Reactions were performed in duplicate, and threshold cycle numbers were averaged. Samples were calculated with normalization to GAPDH.
RT-PCR was performed on whole mouse kidney total RNA isolated at 14 weeks of age. […] In FIG. 5B, expression of arginase 2 mRNA was normalized to GAPDH and data were calculated as expression relative to control.

Assay [3] has as its system STZ-induced diabetic mice (DBA background). As to the kind of experiment: Renal histological changes, PAS staining, STZ-induced diabetic mice (DBA background). The source says: Sections were stained with Periodic acid-Schiff (PAS) and all glomeruli were examined at 40×. Images were taken with 100× (oil) objective with a total magnification of 1000×. […] Adjacent tubular basement membranes stain PAS positive as well.
Kidneys from mice were fixed in 4% paraformaldehyde, embedded in paraffin, and 3-μm sections were cut. Sections were stained with Periodic acid-Schiff (PAS) stain and all glomeruli were examined at 40× (TKC) in a masked fashion. All images were obtained with an Olympus BX51 microscope and DP71 digital camera using MicroSuite Basic 2.6 imaging software. Images were taken with 100× (oil) objective with a total magnification of 1000×. Semiquantitative scores (0-4+) were assigned based on the masked reading, as previously described. Each glomerulus on a single section was graded from 0 to 4+, where 0 represents no lesion, and 1, 2, 3, and 4+ represent mesangial matrix expansion or sclerosis, involving […] of the glomerular tuft area, respectively.

Assay [4] has as its system STZ-induced diabetic mice. As to the kind of experiment: Glomerular macrophage recruitment, Mac-2 staining, STZ-induced diabetic mice. The note with it: arginase inhibitor 6 weeks, p<0.0001 vs vehicle-treated diabetic. How it is done:
(§3) Experiments were conducted in male Ins2^Akita and their wild type (WT) littermate mice (DBA background; Jackson Laboratories) starting at 5 weeks of age until 14 weeks of age and were approved by the Pennsylvania State University College of Medicine Institutional Animal Care and Use Committee (PSU IACUC). The Ins2^Akita mice were recommended by the Animal Models of Diabetes Complications Consortium as an optimal model of diabetic nephropathy, and the mice developed hyperglycemia at 3 weeks of age. […]
as §1
Immunohistochemistry for macrophages was performed in mice using rat anti-mouse Mac-2 monoclonal antibody; clone M3/38 (Cedarlane, Burlington, N.C., US) on paraffin sections. […] The number of glomerular macrophages were counted in twenty glomeruli per section (number of macrophages in glomeruli divided by the number of glomeruli) in blinded fashion under 40× magnification and averaged.

For assay [5], the system named is eNOS deficient and their wild type (WT) littermate mice. As to the kind of experiment: Urinary albumin excretion in STZ-diabetic eNOS deficient and wild type littermate mice. Conditions: BEC 2.3 mg/kg/day s.c. infusion 6 weeks, FIG. 14. The procedure:
Experiments were conducted using multiple low doses of STZ (50 mg/kg body weight for 5 days). Arginase inhibition using BEC (2.3 mg/kg/day) or vehicle was administered by continuous subcutaneous infusion for 6 weeks via a mini-osmotic pump. Data is shown for 6 weeks after STZ-induced diabetes.
Urinary albumin excretion (UAE) was measured by ELISA using Albuwell M (Exocell, Philadelphia, Pa.) as described previously. Blood urea nitrogen (BUN) was measured using (VITROS DT60II chemistry slides; Ortho-Clinical Diagnostics, Rochester, N.Y.). Body composition was determined using LF90 Minispec Time Domain Nuclear Magnetic Resonance Spectrometer (Bruker Optics, Billerica Mass.).
eNOS deficient mice are recommended by the Animal Models of Diabetes Complications Consortium (AMDCC) as an optimal model of diabetic nephropathy. Experiments were conducted in male 6-week-old eNOS deficient and their wild type (WT) littermate mice using multiple low doses of STZ (50 mg/kg body weight for 5 days). Arginase inhibition using BEC (2.3 mg/kg/day) or vehicle was administered by continuous subcutaneous infusion for 6 weeks via a mini-osmotic pump. Renal function was monitored throughout the study.

The subject of assay [6] is Ins2^Akita and their wild type littermate mice. As to the kind of experiment: Blood urea nitrogen (BUN) in Ins2^Akita and wild type littermate mice. The note with it: BEC 2.3 mg/kg/day 9 weeks, 14-week of age, mean ± SEM. How it is done: as §3, §1, §2
The test system is the same in assay [7]. In words: Characteristics of Ins2^Akita and wild type littermate mice (glucose, body weight, kidney weight, body composition) with or without arginase inhibitor. Conditions: BEC 2.3 mg/kg/day 9 weeks, 14-week of age, mean ± SEM. The procedure: Experiments were conducted in male Ins2^Akita and their wild type (WT) littermate mice (DBA background; Jackson Laboratories) starting at 5 weeks of age until 14 weeks of age and were approved by the Pennsylvania State University College of Medicine Institutional Animal Care and Use Committee (PSU IACUC). The Ins2^Akita mice were recommended by the Animal Models of Diabetes Complications Consortium as an optimal model of diabetic nephropathy, and the mice developed hyperglycemia at 3 weeks of age. Additional experiments were conducted in male 6-week-old mice (DBA background; Jackson Laboratories), arginase-2 (Arg2) wild type […] mice on C57B1/6 background weighing 20-22 g and were approved by the PSU IACUC. After an overnight fast, animals were given multiple low doses of vehicle or STZ (Sigma, St. Louis, Mo.; 50 mg/kg body wt dissolved in lactated Ringers solution) via intraperitoneal injection.
BEC, a selective arginase antagonist (2.3 mg/kg/day, Cayman Chemical, Ann Arbor, Mich., USA), or vehicle (phosphate-buffered saline) was administered by continuous subcutaneous infusion for 9 weeks (in Ins2^Akita experiments) or for 6 wks (in STZ DBA mice experiments) via a mini-osmotic pump (Alzet; Durect Corporation, Palo Alto, Calif., USA) as described in CIRCULATION RESEARCH, 102(8):923-32, Apr. 25, 2008. The osmotic pump was incubated in phosphate buffer saline (PBS) for 60-h at 37° C. prior to implantation and was implanted dorsally between shoulders. The condition of mice and body weight were monitored daily following the pump implantation.
as §2

Setting [8] is: control (wild type littermate) mice.

With `N[C@@H](CSCCB(O)O)C(=O)O` [BEC, S-(2-Boronoethyl)-L-cysteine], the “albuminuria (24-hr UAE)” value in assay [1] was “significantly reduced”. In addition, in the assay on Ins2^Akita mice, the “Albuminuria (urinary albumin excretion)” value was “significantly reduced”. In addition, the “glomerular macrophage recruitment (Mac-2 positive)” value in assay [2] (Ins2^Akita mice treated with arginase inhibitor, p<0.0001 vs vehicle-treated Ins2^Akita, FIG. 2D) is 0.9±0.14 macrophages/glomerulus; in assay [2] (control mice treated with arginase inhibitor, FIG. 2C) it was 0.29±0.03 macrophages/glomerulus. Also, the “increase in arginase 2 mRNA expression” value with arginase 2 mRNA is listed as around 1.5 fold. In addition, the “PAS positive material, share of the mesangial matrix” value in [3] (representative PAS section from arginase inhibitor treated STZ mouse, FIG. 7C) is listed as below 25%. Further, the “glomerular changes (PAS, glomerular cellularity and mesangial expansion) score” value in assay [3] (semiquantitative score 0-4+, STZ-induced diabetic mice after 6 weeks, p<0.05 vs vehicle-treated STZ) is listed as 1.6±0.08. Moreover, the “glomerular macrophage recruitment (Mac-2 staining)” value in assay [4] amounted to 1.2±0.06 macrophages/glomerulus. The “albuminuria (UAE)” value in [5] (diabetic WT mice (STZ), vs vehicle) is on record as “significantly reduced”. Moreover, in assay [5] (diabetic eNOS deficient mice (STZ), vs vehicle treated diabetic mice), the UAE entry is given as “failed to reduce”. Moreover, the BUN in assay [6] (Ins2^Akita mice) and in assay [6] (setting [8]) was 28 ± 3 in each case. For the same molecule, the Kidney weight was 269 ± 10 mg in assay [7] (Ins2^Akita mice) and 262 ± 4 mg in assay [7] (setting [8]). Also, in assay [7] (setting [8]), the “KW/BW (kidney weight to body weight ratio)” value is on record as 8.1 ± 0.1 mg/g.

Values taken from patent publication US20120315281A1, “TREATMENT OF RENAL INJURY” (THE PENN STATE RESEARCH FOUNDATION, priority 2011, published 2012).
